Tests used:
Bermuda grass [1] = assay: Phytotoxicity rating, Bermuda grass fairway (Example 10); assay type: in vivo; details: scale 0-5, 5=worst
From the text: (§1) In this Example, the effect of a fertilizer comprising lysine on warm season turfgrass growth was examined. The effects of lysine (HCl) and LIQUID LYSINE on a common type of golf course fairway quality turfgrass (Bermuda grass) were compared with those of urea and Milorganite.
(§2) Fifteen fertilizer treatments comprising three concentrations of each fertilizer composition (Milorganite (N—P—K, 6-2-0), urea (N—P—K, 46-0-0), LIQUID LYSINE (N—P—K, 10-2-1), and both granular and aqueous lysine (HCl) (N—P—K, 15-2-1)) were prepared and applied to 4 replications of Bermuda grass. The aqueous lysine (HCl) was dissolved in water prior to application. Each fertilizer treatment was applied in concentrations of 0.5 lb N/1000 ft^2/month, 1.0 lb N/1000 ft^2/month and 3.0 lb N/1000 ft^2/month. The urea, LIQUID LYSINE and aqueous lysine (HCl) were applied as foliar liquids, while Milorganite and granular lysine (HCl) were applied as granular fertilizers Plot size was 1 m×2 m set up as a randomized complete block. Plots were mowed at 0.5 inches before fertilizer application. Irrigation (0.15 inch) was applied following application. Plots were rated for turfgrass quality and color (scale of 1-10 where 10=dark green turf, 1=dead/brown turf, and 6=minimally acceptable turf) and phytotoxicity (scale of 0-5, where 5=worst, and 2=minimally objectionable) throughout the study period. Quality, color, and phytotoxicity were measured on 2 days before application (day −2) and day 2, day 5, day 15 and day 21 after application. All data was subject to statistical analysis and significant means were determined. Average turfgrass quality ratings for the treatments are presented in Table 9 and the quality results for application rates of 1.0 lb N/1000 ft^2/month are graphically presented in FIG. 4.

Bermuda grass [2] = assay: Turfgrass quality and color ratings, Bermuda grass fairway (Example 10); assay type: in vivo; details: scale 1-10
From the text: as §1, §2

[3] = Monthly Rate 0.5 lbs N/1000 ft^2, Day 2
[4] = Monthly Rate 0.5 lbs N/1000 ft^2, Day 5
[5] = Monthly Rate 0.5 lbs N/1000 ft^2, Day 15
[6] = Monthly Rate 0.5 lbs N/1000 ft^2, Day 21
[7] = Monthly Rate 0.5 lbs N/1000 ft^2, Day −2 (before application)
[8] = Monthly Rate 1.0 lbs N/1000 ft^2, Day 2
[9] = Monthly Rate 1.0 lbs N/1000 ft^2, Day 5
[10] = Monthly Rate 1.0 lbs N/1000 ft^2, Day 15
[11] = Monthly Rate 1.0 lbs N/1000 ft^2, Day 21
[12] = Monthly Rate 1.0 lbs N/1000 ft^2, Day −2 (before application)
[13] = Monthly Rate 3.0 lbs N/1000 ft^2, Day 2, (HCl)
[14] = Monthly Rate 3.0 lbs N/1000 ft^2, Day 5
[15] = Monthly Rate 3.0 lbs N/1000 ft^2, Day 15
[16] = Monthly Rate 3.0 lbs N/1000 ft^2, Day 21
[17] = Monthly Rate 3.0 lbs N/1000 ft^2, Day −2 (before application)
[18] = Monthly Rate 0.5 lbs N/1000 ft^2, Day 2, (HCl)
[19] = Monthly Rate 0.5 lbs N/1000 ft^2, Day 5, (HCl)
[20] = Monthly Rate 0.5 lbs N/1000 ft^2, Day 15, (HCl)
[21] = Monthly Rate 0.5 lbs N/1000 ft^2, Day 21, (HCl)
[22] = Monthly Rate 0.5 lbs N/1000 ft^2, Day −2 (before application), (HCl)
[23] = Monthly Rate 1.0 lbs N/1000 ft^2, Day 2, (HCl)
[24] = Monthly Rate 1.0 lbs N/1000 ft^2, Day 5, (HCl)
[25] = Monthly Rate 1.0 lbs N/1000 ft^2, Day 15, (HCl)
[26] = Monthly Rate 1.0 lbs N/1000 ft^2, Day 21, (HCl)
[27] = Monthly Rate 1.0 lbs N/1000 ft^2, Day −2 (before application), (HCl)
[28] = Monthly Rate 3.0 lbs N/1000 ft^2, Day 2
[29] = Monthly Rate 3.0 lbs N/1000 ft^2, Day 5, (HCl)
[30] = Monthly Rate 3.0 lbs N/1000 ft^2, Day 15, (HCl)
[31] = Monthly Rate 3.0 lbs N/1000 ft^2, Day 21, (HCl)
[32] = Monthly Rate 3.0 lbs N/1000 ft^2, Day −2 (before application), (HCl)

For `Cl.NCCCC[C@H](N)C(=O)O` [Lys (HCl) 15% N (aq), lysine (HCl)], the “Phytotoxicity - Bermuda Grass” value (Bermuda grass [1]; [3]) was 0.0b, the “Phytotoxicity - Bermuda Grass” value (Bermuda grass [1]; [4]) was 0 and the “Phytotoxicity - Bermuda Grass” value (Bermuda grass [1]; [5]) was 0. For the same compound, the “Phytotoxicity - Bermuda Grass” value (Bermuda grass [1]; [6]) was 0, the “Phytotoxicity - Bermuda Grass” value (Bermuda grass [1]; [7]) was 0 and the “Phytotoxicity - Bermuda Grass” value (Bermuda grass [1]; [8]) was 0.0b. For the same compound, the “Phytotoxicity - Bermuda Grass” value (Bermuda grass [1]; [9]) was 0, the “Phytotoxicity - Bermuda Grass” value (Bermuda grass [1]; [10]) was 0 and the “Phytotoxicity - Bermuda Grass” value (Bermuda grass [1]; [11]) was 0. The “Phytotoxicity - Bermuda Grass” value (Bermuda grass [1]; [12]) was 0, the “Phytotoxicity - Bermuda Grass” value (Bermuda grass [1]; [13]) was 0.3ab and the “Phytotoxicity - Bermuda Grass” value (Bermuda grass [1]; [14]) was 0. For the same compound, the “Phytotoxicity - Bermuda Grass” value (Bermuda grass [1]; [15]) was 0, the “Phytotoxicity - Bermuda Grass” value (Bermuda grass [1]; [16]) was 0 and the “Phytotoxicity - Bermuda Grass” value (Bermuda grass [1]; [17]) was 0. For the same compound, the “Quality Ratings - Bermuda Grass” value (Bermuda grass [2]; [3]) was 7.3b, the “Color Ratings - Bermuda Grass” value (Bermuda grass [2]; [18]) was 7.3 and the “Color Ratings - Bermuda Grass” value (Bermuda grass [2]; [19]) was 7.8 g·days. The “Quality Ratings - Bermuda Grass” value (Bermuda grass [2]; [19]) was 7.1 days, the “Color Ratings - Bermuda Grass” value (Bermuda grass [2]; [20]) was 7.6cde and the “Quality Ratings - Bermuda Grass” value (Bermuda grass [2]; [20]) was 7.8de. For the same compound, the “Color Ratings - Bermuda Grass” value (Bermuda grass [2]; [21]) was 8.0bc, the “Quality Ratings - Bermuda Grass” value (Bermuda grass [2]; [21]) was 8.0cde and the “Color Ratings - Bermuda Grass” value (Bermuda grass [2]; [7]) was 6.5. The “Quality Ratings - Bermuda Grass” value (Bermuda grass [2]; [22]) was 6.3, the “Color Ratings - Bermuda Grass” value (Bermuda grass [2]; [23]) was 7.3 and the “Quality Ratings - Bermuda Grass” value (Bermuda grass [2]; [23]) was 7.0b. The “Color Ratings - Bermuda Grass” value (Bermuda grass [2]; [24]) was 8.1cde, the “Quality Ratings - Bermuda Grass” value (Bermuda grass [2]; [24]) was 7.8bcd and the “Color Ratings - Bermuda Grass” value (Bermuda grass [2]; [10]) was 7.8cd. For the same compound, the “Quality Ratings - Bermuda Grass” value (Bermuda grass [2]; [25]) was 7.9de, the “Color Ratings - Bermuda Grass” value (Bermuda grass [2]; [26]) was 8.0bc and the “Quality Ratings - Bermuda Grass” value (Bermuda grass [2]; [26]) was 8.0cde. For the same compound, the “Color Ratings - Bermuda Grass” value (Bermuda grass [2]; [27]) was 6.5, the “Quality Ratings - Bermuda Grass” value (Bermuda grass [2]; [27]) was 6.4 and the “Color Ratings - Bermuda Grass” value (Bermuda grass [2]; [28]) was 7.3. For the same compound, the “Quality Ratings - Bermuda Grass” value (Bermuda grass [2]; [28]) was 7.4b, the “Color Ratings - Bermuda Grass” value (Bermuda grass [2]; [14]) was 9.0a and the “Quality Ratings - Bermuda Grass” value (Bermuda grass [2]; [29]) was 8.3ab. For the same compound, the “Color Ratings - Bermuda Grass” value (Bermuda grass [2]; [30]) was 8.3ab, the “Quality Ratings - Bermuda Grass” value (Bermuda grass [2]; [30]) was 8.8b and the “Color Ratings - Bermuda Grass” value (Bermuda grass [2]; [31]) was 8.8a. For the same compound, the “Quality Ratings - Bermuda Grass” value (Bermuda grass [2]; [31]) was 8.5ab, the “Color Ratings - Bermuda Grass” value (Bermuda grass [2]; [32]) was 6.1 and the “Quality Ratings - Bermuda Grass” value (Bermuda grass [2]; [32]) was 6.0.

For `Cl.NCCCC[C@H](N)C(=O)O` [Lys (HCl) 15% N (gran), lysine (HCl)], the “Phytotoxicity - Bermuda Grass” value (Bermuda grass [1]; [3]) was 0.0b, the “Phytotoxicity - Bermuda Grass” value (Bermuda grass [1]; [4]) was 0 and the “Phytotoxicity - Bermuda Grass” value (Bermuda grass [1]; [5]) was 0. The “Phytotoxicity - Bermuda Grass” value (Bermuda grass [1]; [6]) was 0, the “Phytotoxicity - Bermuda Grass” value (Bermuda grass [1]; [7]) was 0 and the “Phytotoxicity - Bermuda Grass” value (Bermuda grass [1]; [8]) was 0.0b. For the same compound, the “Phytotoxicity - Bermuda Grass” value (Bermuda grass [1]; [9]) was 0, the “Phytotoxicity - Bermuda Grass” value (Bermuda grass [1]; [10]) was 0 and the “Phytotoxicity - Bermuda Grass” value (Bermuda grass [1]; [11]) was 0. The “Phytotoxicity - Bermuda Grass” value (Bermuda grass [1]; [12]) was 0, the “Phytotoxicity - Bermuda Grass” value (Bermuda grass [1]; [13]) was 0.5a and the “Phytotoxicity - Bermuda Grass” value (Bermuda grass [1]; [14]) was 0. For the same compound, the “Phytotoxicity - Bermuda Grass” value (Bermuda grass [1]; [15]) was 0, the “Phytotoxicity - Bermuda Grass” value (Bermuda grass [1]; [16]) was 0 and the “Phytotoxicity - Bermuda Grass” value (Bermuda grass [1]; [17]) was 0. The “Quality Ratings - Bermuda Grass” value (Bermuda grass [2]; [3]) was 7.3b, the “Color Ratings - Bermuda Grass” value (Bermuda grass [2]; [18]) was 7.5 and the “Color Ratings - Bermuda Grass” value (Bermuda grass [2]; [19]) was 8.0def. For the same compound, the “Quality Ratings - Bermuda Grass” value (Bermuda grass [2]; [19]) was 7.6bcd, the “Color Ratings - Bermuda Grass” value (Bermuda grass [2]; [20]) was 7.1e and the “Quality Ratings - Bermuda Grass” value (Bermuda grass [2]; [20]) was 7.4e. For the same compound, the “Color Ratings - Bermuda Grass” value (Bermuda grass [2]; [21]) was 8.3b, the “Quality Ratings - Bermuda Grass” value (Bermuda grass [2]; [21]) was 7.9def and the “Color Ratings - Bermuda Grass” value (Bermuda grass [2]; [7]) was 6.5. For the same compound, the “Quality Ratings - Bermuda Grass” value (Bermuda grass [2]; [22]) was 6.5, the “Color Ratings - Bermuda Grass” value (Bermuda grass [2]; [23]) was 7.9 and the “Quality Ratings - Bermuda Grass” value (Bermuda grass [2]; [23]) was 7.6ab. For the same compound, the “Color Ratings - Bermuda Grass” value (Bermuda grass [2]; [24]) was 8.3bcd, the “Quality Ratings - Bermuda Grass” value (Bermuda grass [2]; [24]) was 7.9abc and the “Color Ratings - Bermuda Grass” value (Bermuda grass [2]; [10]) was 7.8cd. The “Quality Ratings - Bermuda Grass” value (Bermuda grass [2]; [25]) was 8.1cd, the “Color Ratings - Bermuda Grass” value (Bermuda grass [2]; [26]) was 8.3b and the “Quality Ratings - Bermuda Grass” value (Bermuda grass [2]; [26]) was 8.1bcd. For the same compound, the “Color Ratings - Bermuda Grass” value (Bermuda grass [2]; [27]) was 6.4, the “Quality Ratings - Bermuda Grass” value (Bermuda grass [2]; [27]) was 6.3 and the “Color Ratings - Bermuda Grass” value (Bermuda grass [2]; [28]) was 7.3. For the same compound, the “Quality Ratings - Bermuda Grass” value (Bermuda grass [2]; [28]) was 7.4b, the “Color Ratings - Bermuda Grass” value (Bermuda grass [2]; [14]) was 9.0a and the “Quality Ratings - Bermuda Grass” value (Bermuda grass [2]; [29]) was 8.5a. The “Color Ratings - Bermuda Grass” value (Bermuda grass [2]; [30]) was 8.6a, the “Quality Ratings - Bermuda Grass” value (Bermuda grass [2]; [30]) was 9.4a and the “Color Ratings - Bermuda Grass” value (Bermuda grass [2]; [31]) was 8.9a. The “Quality Ratings - Bermuda Grass” value (Bermuda grass [2]; [31]) was 8.6a, the “Color Ratings - Bermuda Grass” value (Bermuda grass [2]; [32]) was 6.4 and the “Quality Ratings - Bermuda Grass” value (Bermuda grass [2]; [32]) was 6.1.

— patent publication US7811352B2, “Fertilizer compositions and methods of using” (priority 2005, dated 2010)
